Test results published in US6667025B2 (Mitsubishi Pharma Corporation, priority 1997, dated 2003).

Tests used:
[1] = test system: skin allograft, WKAH donor and F344 recipients; assay type: in vivo
From the text: Two MHC-incompatible rat strains were selected, WKAH donor (RT1^k) and F344 recipients (RT1^IV1). Full-thickness skin grafts (2.0×2.0 cm square) were transplanted to the lateral thorax of recipients and wrapped with sterile, bactericidal gauze. The chest was then wrapped with an elastic bandage. Five days after transplantation, the wraps were removed and the grafts inspected daily for rejection. Rejection was defined as more than 90% necrosis of graft epithelium.

[2] = test system: skin allograft, LEW donor and F344 recipient; test: Rat skin allograft survival, MHC-compatible strains; assay type: in vivo; settings: data not shown
[3] = test system: cardiac allograft, WKAH donors and ACI recipients; test: Heterotopic cardiac allograft survival, MHC-incompatible rat strains; assay type: in vivo
[4] = test system: renal allograft, mongrel donors and beagle recipients; test: Canine renal allograft survival; assay type: in vivo; settings: 5 mg/kg
Description: Kidneys from mongrel donor dogs were transplanted into beagle dogs in the right iliac fossa, and the recipient dogs were then nephrectomized bilaterally. Levels of serum creatine and blood urea nitrogen were measured to monitor survival. Graft rejection was defined as the day when either serum creatine levels increased to more than 10.0 mg/dL or blood urea nitrogen levels elevated to more than 200 mg/dL. […] The survival curves are illustrated in FIG. 6.

[5] = test system: CD3-positive T cells and CD45RA or A/B-positive B cells; test: Lymphocyte contents of blood and lymphoid tissues by two color flow cytometry; assay type: in vivo, rat
Description: The lymphocyte contents of peripheral blood and spleen in FTY720-treated intact or allografted rats were analyzed by two color flow cytometry using anti-rat CD3 and anti-rat CD45RA or A/B monoclonal antibodies (21). Lymphocytes were stained with FITC-conjugated anti-CD3 (clone: 1F4, Caltag Laboratories, South San Fransisco, Calif.) (45) and phycoerythrin-conjugated anti-CD45RA or A/B (clone:OX-33, Pharmingen, La Jolla, Calif.) (46) monoclonal antibodies. The T cell and B cell contents were determined by two-color flow cytometry analysis using a flow cytometer (EPICS-XL; Coulter Co.).
(§1) In dogs and monkeys, as well as rats, oral administration with FTY720 also decreases the number of circulating lymphocytes in peripheral blood. The reduction of the number of T cells was especially remarkable. Withdrawal of FTY720 treatment recovered the number of lymphocytes in peripheral blood to the normal level within 2 weeks.

circulating lymphocytes = test: Circulating lymphocytes in peripheral blood of dogs; assay type: in vivo, dog; settings: oral
From the text: as §1

[6] = test system: male F344 rat lymphocytes in lymphoid tissues; test: Homing of transfused male lymphocytes in female rats (SRY PCR); assay type: in vivo; settings: 0.1 or 1 mg/kg oral 2.5 h before transfusion; 30 min after transfusion
Description: The decrease in circulating lymphocytes by FTY720 is due to the acceleration of lymphocyte homing to mesenteric and peripheral lymph nodes and Peyer's patches (FIGS. 13A-13D). For this experiment, after 2.5 h of administering FTY720 at 0.1 mg/kg or 1 mg/kg orally to female F344 rats, lymphocytes from male F344 rat were transfused intravenously into the rats. Thirty minutes after the transfusion, the peripheral blood, spleen, mesenteric lymph nodes, axillary lymph nodes, Peyer's patches, liver, and lung were removed. PCR amplification of SRY-1 gene, which is Y-chromosome specific, detected male lymphocytes in the tissue samples. The PCR primer sequences for SRY amplification were taken from a previous report (47). […]
An aliquot (10 μl) of the PCR products was electrophoresed on 2.5% agarose gel and the amplified DNA-fragments stained with SYBR Green I (Molecular Probes). The fluorescence intensity of the specific bands was visualized and measured by a fluorescence image analyzer (Fluor Imager 575, Molecular Dynamics). The number of male cells in 10^6 female cells, calculated with a standard curve made from a control amplification of SRY from a standard DNA extracted from 10^6 […], is indicated for each tissue noted in FIGS. 13A-13D.

rat HEV cell lines = test: Adhesion of rat lymphocytes to HEV cells in vitro; assay type: cell-based
Description: After the labeling with calcein-AM, the lymphocytes were washed three times with ice-cold RPMI 1640 medium. […] After incubation, the plates were turned upside down and kept for 30 min to remove HEV-nonadherent cells. Calcein pre-labeled lymphocytes adhered to HEV monolayer were lysed by adding distilled water containing 1% nonidet P-40 and the developed fluorescence was measured at 485/530 nm with fluorescence microplate reader (CytoFluor 2350).

[7] = test system: calcein-prelabeled lymphocytes in lymphoid tissues; test: Lymphocyte homing of calcein-prelabeled lymphocytes; assay type: in vivo, rat; settings: oral 1 mg/kg
Description: The lymphocytes prepared from mesenteric lymph nodes and axillary lymph nodes in 5 to 6-week old F344 rats were pre-labeled with calcein-AM (Molecular Probes) at 1 μmol/L on ice for 30 min. After the labeling with calcein-AM, the lymphocytes were washed three times with ice-cold saline. Thereafter, the calcein-prelabeled lymphocytes at 5×10^7 cells were transfused through the tail vein to sex and age-matched F344 rats. FTY720 at 0.1 or 1 mg/kg was orally administered 2.5 hours before the transfusion. After 30 min. of the transfusion, mesenteric lymph nodes, axillary lymph nodes, Peyer's patches, and spleen were removed and the numbers of calcein prelabeled lymphocytes in these tissues were measured using flow cytometer (EPICS-XL). To examine the influence of antibodies against lymphocyte homing receptors, the calcein-prelabeled lymphocytes were treated with 60 μg/ml of either mouse anti-rat CD49d Mab (clone TA-2) (49), hamster anti-rat CD62L Mab (clone HRL3) (50), mouse anti-rat CD11a Mab (clone WT.1) (51), or control Ig at 4° C. for 30 min. Anti-rat lymphocyte-homing receptor Mabs and control Ig were purchased from Seikagaku-kougyou Ltd. or Pharmingen, respectively.

T cell region of spleen = T cell region of spleen in vivo
IL-2 production = settings: same concentration range (up to 1000 nM); cited from earlier work

For `CCCCCCCCc1ccc(CCC(N)(CO)CO)cc1.Cl` [FTY720, 2-amino-2[2-(4-octylphenyl)ethyl]propane-1,3-diol hydrochloride], which “median survival time (MST) of skin graft” value ([1]; 10 mg/kg for 14 days) is on record?
The value was 27.0 days.

What about the “oral dose that significantly prolonged skin graft survival” value ([1]; oral, WKAH to F344 rats) of the same molecule?
Its value is at least 0.1 mg/kg.

What about the “renal toxicity or other toxic signs” value ([1]; rat, in vivo, po, 10 mg/kg) of the same molecule?
Its value is “without renal toxicity or other toxic signs”.

And the “dose that significantly prolonged skin allograft survival” value [2]?
The value was at least 0.03 mg/kg.

And the “MST of cardiac allograft” value ([3]; 0.1 mg/kg for 14 days)?
Its value is 20.0 days.

What about the “MST of cardiac allograft” value ([3]; 0.3 mg/kg for 14 days) of the same molecule?
Its value is 21.0 days.

And the “MST of cardiac allograft” value ([3]; 1 mg/kg for 14 days)?
The value was 25.5 days.

What about the “MST of cardiac allograft” value ([3]; 3 mg/kg for 14 days) of the same molecule?
The value was 29.5 days.

And the “MST of cardiac allograft” value ([3]; 10 mg/kg for 14 days)?
The value was 58.5 days.

What about the “long-term or indefinite cardiac graft survival” value ([3]; 10 mg/kg, in three out of eight recipient rats) of the same molecule?
Its value is “more than 100 days”.

And the “dose that significantly prolonged cardiac allograft survival” value ([3]; vs control)?
Its value is at least 0.1 mg/kg.

And the “MST of renal allograft” value [4]?
Its value is 12.0 days.

And the “number of bone marrow cells, thymocytes, polymorphonuclear cells” value ([5]; data not shown)?
Its value is “did not effect”.

What about the “number of T cells and B cells in spleen, thoracic duct, peripheral blood” value ([5]; oral 1 mg/kg) of the same molecule?
Its value is “decrease”.

What about the “numbers of T cells and B cells in mesenteric and peripheral lymph nodes” value ([5]; oral 1 mg/kg) of the same molecule?
The value was “significantly increased”.

And the “time to recovery of peripheral blood lymphocytes to normal level after withdrawal” value ([5]; withdrawal of FTY720 treatment)?
The value was at most 2 weeks.

What about the “numbers of T cells and B cells in peripheral blood” value ([5]; within 6 hours after oral 0.1 to 10 mg/kg) of the same molecule?
Its value is “dramatically decreased”.

And the “number of circulating lymphocytes in peripheral blood” value (circulating lymphocytes)?
The value was “decreases”.

And the “pre-labeled lymphocytes in peripheral lymph nodes, Peyer's patch, mesenteric lymph nodes” value [6]?
The value was “accelerated lymphocyte homing”.

What about the “pre-labeled lymphocytes in spleen” value [6] of the same molecule?
Its value is “reduction”.

And the “Fluorescence intensity at 485/530, mean ± SE (n = 6)” value (rat HEV cell lines; Experiment 1, HEV cells pretreated 3 hours with 1 nmol/L)?
Its value is 1215.7 ± 191.2.

And the “Fluorescence intensity at 485/530, mean ± SE (n = 6)” value (rat HEV cell lines; Experiment 1, HEV cells pretreated 3 hours with 10 nmol/L)?
Its value is 2926.0 ± 196.4.

And the “Fluorescence intensity at 485/530, mean ± SE (n = 6)” value (rat HEV cell lines; Experiment 1, HEV cells pretreated 3 hours with 100 nmol/L)?
The value was 2510.2 ± 118.8.

What about the “Fluorescence intensity at 485/530, mean ± SE (n = 6)” value (rat HEV cell lines; Experiment 2, lymphocytes pretreated 3 hours with 100 nmol/L) of the same molecule?
Its value is 1945.7 ± 5.2.

And the “Fluorescence intensity at 485/530, mean ± SE (n = 6)” value (rat HEV cell lines; FTY720 1 nmol/L present)?
Its value is 2059.2 ± 112.6.

And the “Fluorescence intensity at 485/530, mean ± SE (n = 6)” value (rat HEV cell lines; FTY720 10 nmol/L present)?
Its value is 2107.2 ± 106.5.

What about the “Fluorescence intensity at 485/530, mean ± SE (n = 6)” value (rat HEV cell lines; FTY720 100 nmol/L present) of the same molecule?
The value was 2252.0 ± 70.8.

What about the “Fluorescence intensity at 485/530, mean ± SE (n = 6)” value (rat HEV cell lines; FTY720 1000 nmol/L present) of the same molecule?
Its value is 2383.2 ± 115.2.

What about the “concentration that enhanced adhesion of calcein-prelabeled lymphocytes to HEV” value (rat HEV cell lines; in vitro, 120 min) of the same molecule?
Its value is at least 1 nmol/L.

And the “homing of calcein-prelabeled lymphocytes to mesenteric lymph nodes and Peyer's patches” value [7]?
The value was “induced lymphocyte homing”.

What about the “effect on T cell region of spleen” value (T cell region of spleen) of the same molecule?
Its value is “atrophy”.

And the “production of IL-2” value (IL-2 production)?
The value was “did not inhibit”.
